Assay results as given in patent US20020035998A1, “Method for treatment of cancer and infectious disease” (priority 1995, published 2002).

Experiments:
[1] = system: K562 target cells; assay: NK cell cytotoxicity (NKCC), 16-hour 51Cr-release assay against K562 target cells; type: cell-based, human
Description: (§1) MNC were obtained from peripheral venous blood from healthy human blood donors by Ficoll-Hypaque centrifuging, followed by Percoll density-gradient fractionation (Timonen and Saksela, 1980, J. Immunol. Methods 36, 285-291; Hellstrand and Hermodsson, 1990, Scand. J. Immunol. 31, 631-645).
(§2) The target cells used in these experiments were K562, an NK-cell sensitive erythroleukemic cell line, or Daudi, a relatively NK-insensitive EBV-transformed B-cell lymphoblastoid cell line.
(§3) The NKCC was determined six times as the specific ^51Cr-release for a NMNC: target-cell ratio of between 30:1 and 3.8:1 in two-fold dilution gradients. The suspensions of MNC/target cells were incubated in microplates at 37° C. for 6 hours (Daudi) or 16 hours (K562). The supernatant solution was then collected and examined for radioactivity in a gamma counter. The maximum ^51Cr-release was measured in target cell cultures treated with Triton X-100. The NKCC was calculated as the cell lysis % by the formula 100×(experimental release−spontaneous release/maximum release−spontaneous release)=cell lysis %.
A low-density Percoll fraction was separated by counterflow centrifuge elusion (CCE) in a monocyte and in a lymphocyte fraction. The monocyte fraction was concentrated to >90% purity whereupon the contaminating cells consisted of large lymphocytes. The lymphocyte fractions obtained by CCE contained <3% monocytes, determined by morphology and Leu-M3 (CD14) antigen expression. The lymphocytes were […], […] , CD3^+/16^−/56^− T cells (45-50%), CD3^+/16^+/56^+ cells (1-5%), determined by flow cytometry.
J The eluted monocytes and/or the NK cell-concentrated low-density lymphocytes were treated with IFN-α and histamine/serotonin. The compounds were added, separately or in combination, to mixtures of MNC and K562 target cells at the start of a 16-hour ^51Cr-release assay. The cytotoxicity against K562 in the NK cell-concentrated lymphocyte fraction was increased by IFN-α and unaffected by histamine or serotonin. […] The addition of eluted monocytes to the NK cell concentrated lymphocytes suppressed the baseline cytotoxicity to K562.
In the experiments reported in Table 1, eluted lymphocytes were mixed with monocytes as shown in the table, in a total volume of 150 μl. The data are NKCC (mean ±SEM) of six determinations. Serotonin 10^−4 M and/or IFN-α (25 U/ml) was added at the start of a 16-hour microcytotoxicity test against 10^4 K562 target cells.
(§4) In the results shown in Table 2, MNC from five different donors were used. All compounds were added to mixtures of MNC and target cells at the start of a 6 h (Daudi) or 16 h (K562) effecter and target cell incubation. The effecter cells were obtained from Percoll fractions 7-8, containing 33-55% monocytes.
Cells from the monocyte-containing Percoll fraction 8 were incubated with culture medium, histamine (10^−4 M) or serotonin (10^−4 M) in the presence of IFN-α (0-100 U/ml). The data shown are NKCC (cell lysis %; mean±SEM of six determinations). The compounds were added at the start of a 16 h microcytotoxicity test against K 562 target cells.

[2] = system: Daudi target cells; assay: NK cell cytotoxicity (NKCC), 6-hour 51Cr-release assay against Daudi target cells; type: cell-based, human
Description: as §1, §2, §3, §4
In the experiment shown in Table 3, culture medium (control), histamine (10^−4 M), dimaprit (10^−4 M), ranitidine (ran) (10^−4 M) and/or IFN-α (25 U/ml) were added at the start of a 6-hour ^51Cr release assay using Daudi target cells. The data are representative of three similar experiments. NKCC is given as mean cell lysis %±SEM of six determinations. The effecter cells were recovered from a low-density Percoll fraction 8, containing around 40% monocytes.
In the experiment shown in Table 4, culture medium (control), serotonin, 8-OH-DPAT (+)-ALK and/or IFN-α (25 U/ml) were added at the start of a 6-hour ^51Cr-release assay against Daudi target cells. The NKCC is given as cell lysis %±SEM of six determinations. The effector cells were recovered from the low-density Percoll fraction 7, containing around 36% monocytes.

[3] = mixtures of eluted monocytes and NK cell-enriched lymphocytes

In the case of `NCCc1c[nH]cn1` [Histamine, histamine], the “NKCC (cell lysis % ± SEM)” value ([1]; Exp 1, K562, 15:1, histamine 10^−4 M plus IFN 25 U/ml) is reported as 76.4 ± 3%, the “NKCC (cell lysis % ± SEM)” value ([1]; Exp 1, K562, 15:1, histamine 10^−5 M plus IFN 25 U/ml) is reported as 74.1 ± 1% and the “NKCC (cell lysis % ± SEM)” value ([1]; Exp 1, K562, 15:1, histamine 10^−5 M, medium (no IFN)) is reported as 54.7 ± 1%. The “NKCC (cell lysis % ± SEM)” value ([1]; Exp 1, K562, 15:1, histamine 10^−6 M plus IFN 25 U/ml) was 66.0 ± 2%, the “NKCC (cell lysis % ± SEM)” value ([1]; Exp 1, K562, 15:1, histamine 10^−6 M, medium (no IFN)) was 39.2 ± 1% and the “NKCC (cell lysis % ± SEM)” value ([1]; Exp 1, K562, MNC/target 15:1, histamine 10^−4 M, medium (no IFN), monocyte-containing Percoll fractions 7-8) was 55.5 ± 1%. The “NKCC (cell lysis % ± SEM)” value ([1]; Exp 2, K562, 15:1, histamine 10^−4 M plus IFN 25 U/ml) was 67.9 ± 2%, the “NKCC (cell lysis % ± SEM)” value ([1]; Exp 2, K562, 15:1, histamine 10^−4 M, medium (no IFN)) was 32.4 ± 1% and the “NKCC (cell lysis % ± SEM)” value ([1]; Exp 2, K562, 15:1, histamine 10^−5 M plus IFN 25 U/ml) was 66.2 ± 1%. For the same compound, the “NKCC (cell lysis % ± SEM)” value ([1]; Exp 2, K562, 15:1, histamine 10^−5 M, medium (no IFN)) was 27.4 ± 1%, the “NKCC (cell lysis % ± SEM)” value ([1]; Exp 2, K562, 15:1, histamine 10^−6 M plus IFN 25 U/ml) was 55.4 ± 1% and the “NKCC (cell lysis % ± SEM)” value ([1]; Exp 2, K562, 15:1, histamine 10^−6 M, medium (no IFN)) was 23.2 ± 2%. For the same compound, the “NKCC (cell lysis % ± SEM)” value ([1]; Exp 3, K562, 15:1, histamine 10^−4 M plus IFN 25 U/ml) was 71.9 ± 1%, the “NKCC (cell lysis % ± SEM)” value ([1]; Exp 3, K562, 15:1, histamine 10^−4 M, medium (no IFN)) was 43.3 ± 1% and the “NKCC (cell lysis % ± SEM)” value ([1]; Exp 3, K562, 15:1, histamine 10^−5 M plus IFN 25 U/ml) was 66.5 ± 2%. The “NKCC (cell lysis % ± SEM)” value ([1]; Exp 3, K562, 15:1, histamine 10^−5 M, medium (no IFN)) was 38.6 ± 1%, the “NKCC (cell lysis % ± SEM)” value ([1]; Exp 3, K562, 15:1, histamine 10^−6 M plus IFN 25 U/ml) was 56.3 ± 2% and the “NKCC (cell lysis % ± SEM)” value ([1]; Exp 3, K562, 15:1, histamine 10^−6 M, medium (no IFN)) was 29.4 ± 1%. The “cytotoxicity against K562 in the NK cell-concentrated lymphocyte fraction” value ([1]; eluted lymphocytes without monocytes, 16-hour assay) was “unaffected”, the “basal cytotoxicity of lymphocytes in mixtures of monocytes and lymphocytes” value [1, 3] was “restored” and the “monocyte induced inhibition of the NK cell response to IFN-α” value [1, 3] was “eliminated”. The “NKCC (cell lysis % ± SEM)” value ([2]; Exp 4, Daudi, 30:1, histamine 10^−4 M plus IFN 25 U/ml) was 31.7 ± 1%, the “NKCC (cell lysis % ± SEM)” value ([2]; Exp 4, Daudi, 30:1, histamine 10^−5 M plus IFN 25 U/ml) was 28.3 ± 1% and the “NKCC (cell lysis % ± SEM)” value ([2]; Exp 4, Daudi, 30:1, histamine 10^−5 M, medium (no IFN)) was 3.5 ± 2%. The “NKCC (cell lysis % ± SEM)” value ([2]; Exp 4, Daudi, 30:1, histamine 10^−6 M plus IFN 25 U/ml) was 14.1 ± 1%, the “NKCC (cell lysis % ± SEM)” value ([2]; Exp 4, Daudi, 30:1, histamine 10^−6 M, medium (no IFN)) was 1.1 ± 0.3% and the “NKCC (cell lysis % ± SEM)” value ([2]; Exp 4, Daudi, MNC/target 30:1, histamine 10^−4 M, medium (no IFN)) was 4.4 ± 1%. The “NKCC (cell lysis % ± SEM)” value ([2]; Exp 5, Daudi, 30:1, histamine 10^−4 M plus IFN 25 U/ml) was 61.3 ± 3%, the “NKCC (cell lysis % ± SEM)” value ([2]; Exp 5, Daudi, 30:1, histamine 10^−4 M, medium (no IFN)) was 13.5 ± 1% and the “NKCC (cell lysis % ± SEM)” value ([2]; Exp 5, Daudi, 30:1, histamine 10^−5 M plus IFN 25 U/ml) was 52.3 ± 2%. For the same compound, the “NKCC (cell lysis % ± SEM)” value ([2]; Exp 5, Daudi, 30:1, histamine 10^−5 M, medium (no IFN)) was 9.7 ± 1%, the “NKCC (cell lysis % ± SEM)” value ([2]; Exp 5, Daudi, 30:1, histamine 10^−6 M plus IFN 25 U/ml) was 31.7 ± 1% and the “NKCC (cell lysis % ± SEM)” value ([2]; Exp 5, Daudi, 30:1, histamine 10^−6 M, medium (no IFN)) was 2.5 ± 1%. For the same compound, the “NKCC (Cell Lysis %) ± SEM after treatment with IFN” value ([2]; agonist 10^−4 M plus IFN-α 25 U/ml, Daudi 6 h, Percoll fraction 8) was 31.7 ± 0.3%, the “NKCC (Cell Lysis %) ± SEM after treatment with Ran + IFN” value ([2]; agonist 10^−4 M plus ranitidine 10^−4 M plus IFN-α 25 U/ml, Daudi 6 h, Percoll fraction 8) was 1.6 ± 0.2% and the “NKCC (Cell Lysis %) ± SEM after treatment with Ran” value ([2]; agonist 10^−4 M plus ranitidine 10^−4 M, Daudi 6 h, Percoll fraction 8) was 1.5 ± 0.3%. For the same compound, the “NKCC (cell lysis % ± SEM)” value ([2]; named agent(s) only, no further additive: histamine, dimaprit, ranitidine 10^−4 M, IFN-α 25 U/ml, Daudi 6 h, Percoll fraction 8, around 40% monocytes) was 9.4 ± 0.3%.
